The record followed here is US11827624B2, “Covalent immune recruiter compounds for immune cell recognition and associated uses” (McMaster University, priority 2020, dated 2023).

The test system of this experiment is PSMA+HEK cells. Kind of experiment: Luminescence ADCC reporter (CD16α activation) assay with mmAb. The format is cell-based, human. The following applies: antibody 10^−7-10^−9 M. As for the experimental part: Covalent vs. non-covalent antibody recruitment were compared in functional immune assays. Activation of NK cell CD16α immune receptors was assessed via luminescence based ADCC assays. ADCC was quantified using the ADCC Reportor Bioassay kit (Promega G7010). All ADCC induced luminescence was measured on a SpectraMax i3 plate reader (Molecular Devices). The human IgG isotype control used was purchased from Jackson ImmunoResearch (009-000-003). The human IgG1 monoclonal anti-DNP antibody (mAb) was purchased from Acrobiosystems (DNP-M2). Human IgG from serum was purchased from Innovative Research ([…]1000MG). Anti-DNP depleted serum was made from human IgG from serum (Innovative Research). For PSMA competition controls, 2-PMPA was purchased from Sigma (SML1612). Hek-293T (PSMA+/−) cell lines were generously given by Dr. Cyril Barinka (Institute of Biotechnology CAS, Czech Republic). Ultra low IgG FBS was purchased from Fischer Scientific (A3381901). RPMI-1640 was purchased as a powder from Fischer Scientific (31800089) and resuspended. DMEM was purchased as a powder from Fischer Scientific (12800082) and resuspended. Pen/Strep was purchased from Fischer Scientific (15140-122). FBS was purchased from Fischer Scientific (12484-028). Zeocin was purchased from Fischer Scientific (R25001). HEK-PSMA cells were cultured in DMEM media with 2 mM L-glut, 1% Pen/Strep, 10% FBS, 50 ug/mL Zeocin. HEK cells were cultured in DMEM media with 2 mM L-glut, 1% Pen/Strep, 10% FBS.
Preparation of antibody-CIR/ARM stocks were mixed overnight prior to addition to the ADCC plate. In the case of mmAb and mAb, incubation was carried out at 600 nM antibody and 1.2 μM CIR or ARM. In the case of IgG from serum, incubation was completed at 230 μM antibody and 8.7 μM CIR or ARM. In all cases, DMSO was kept close to 1%. After the overnight incubation, a dilution series was completed on the antibody-CIR/ARM stocks in RPMI (1% DMSO). […] 75 μL of Bio-Glo Luciferase Assay Reagent was added to each well, and luminescence was quantified using the SpectraMax i3 plate reader. […]

`O=C(O)CC[C@H](NC(=O)N[C@@H](CCCCNC(=O)NCCOCCOCCOCCOCCOCCOCCOCCOC(=O)NCCOCCn1cc(CNc2ccc([N+](=O)[O-])cc2[N+](=O)[O-])nn1)C(=O)O)C(=O)O` [ARM 12, reference compound]: the “CD16α based target immune recognition” value is recorded as “largely unable to mediate immune recognition of target HEK cells”. The same measure for `O=C(O)CC[C@H](NC(=O)N[C@@H](CCCCNC(=O)NCCOCCOCCOCCOCCOCCOCCOCCOC(=O)n1cnc(CCn2cc(CNc3ccc([N+](=O)[O-])cc3[N+](=O)[O-])nn2)c1)C(=O)O)C(=O)O` [CIR 5]: “robust target immune recognition”.
